Counter-ions that a name gives are not always drawn.
Format: physicochemical
Experimental: The amorphous atorvastatin calcium was loaded into 20 ml glass vials (approximately 1 g per vial), and heated at 100±5° C. for 1, 6, and 18 hours in an oven. After heating, the powder was transferred from the vials to 15 ml amber screw-cap bottles, and set-up on stability at 50° C./20% RH. In addition, unannealed amorphous atorvastatin calcium, which was loaded in 15 ml amber screw-cap bottles, was placed on stability as a control.
The annealed amorphous atorvastatin calcium was analyzed for impurities and atorvastatin degradation products using HPLC, by evaluating the ratio of peak integration compared to the total integrated peak areas. […] The material was analyzed by HPLC (Zorbax SB C8 column, 25.0 cm×4.6 mm, HPLC: Hewlett Packard 1100 series, 20 μl injection volume, flow of 1.5 mL/min). […]
Stability data obtained for three annealed samples and the control sample are graphically illustrated in FIGS. 1 to 4. […] In order to express stabilization by annealing in a more quantitative term, relative degradation rate constants, krel, were determined from the data presented in FIGS. 1 to 4. The krel were calculated using Eq. 1: krel=(k/k0)*100% Eq. 1 where k is the zero order rate constant for annealed samples, and k0 is the zero order rate constant for the control sample; k and k0 were determined from the data presented in FIGS. 1 to 4.

CC(C)c1c(C(=O)Nc2ccccc2)c(-c2ccccc2)c(-c2ccc(F)cc2)n1CC[C@@H](O)C[C@@H](O)CC(=O)O (relative stereo) [amorphous atorvastatin calcium, [R—(R*,R*)]-2-(4-fluorophenyl)-β,δ-dihydroxy-5-(1-methylethyl)-3-phenyl-4-[(phenylamino)carbonyl]-1H-pyrrole-1-heptanoic acid calcium salt (2:1) trihydrate]
Relative degradation rate for total degradation products, less than in the control: 34%

Source: patent US9428455B2, “Process for annealing amorphous atorvastatin” (Pfizer Inc., priority 2005, dated 2016)
